This is an account of results in patent publication US9567318B2, “Substituted pyrimidine compounds and uses thereof” (Memorial Sloan-Kettering Cancer Center, priority 2009, dated 2017).

One assay relates to Kasumi-1 acute myeloid leukemia cells. As to the kind of experiment: Growth Inhibition Assay (Alamar blue), Kasumi-1. The settings on record: Homo sapiens, Kasumi 1, 72 h, Kasumi-1 cells. It counts as cell-based, human. As to the method: The IC50 values listed for some of these compounds illustrate the antiproliferative effects of the subject compounds and were obtained using the Growth Inhibition assays described herein.
Growth Inhibition Assay. Antiproliferative effects of inhibitors were evaluated using the dye Alamar blue. This reagent offers a rapid objective measure of cell viability in cell culture, and it uses the indicator dye resazurin to measure the metabolic capacity of cells, an indicator of cell viability. Briefly, cells were plated on Costar 96-well plates. For attached cells (such as SKBr3, MDA-MB-468, LNCaP, MRCS), 8,000 cells/well were used. For suspension cells (such as MOLM-13, Kasumi-1, OCI-Ly7, PBL), 20,000 cells/well were plated. Cells were allowed to incubate for 24 h at 37° C. before drug treatment. Drugs were added in triplicates at the indicated concentrations, and the plate was incubated for 72 h. Alamar Blue (440 μM) was added, and the plate read 6 h later using the Analyst GT (Fluorescence intensity mode, excitation 530 nm, emission 580 nm, with 560=dichroic mirror). Results were analyzed using the Softmax Pro software. The percentage cell growth inhibition was calculated by comparing fluorescence readings obtained from treated versus control cells, accounting for initial cell population (time zero).
In general terms: The colour change of resazurin is a common sign of viable cells or microbes.
Consider `CCOc1nc(N2CCN(C)CC2)nc(OCC)c1Sc1nc(NC(C)=O)cc(NC(C)=O)n1` [YK29, N,N′-(2-(4,6-diethoxy-2-(4-methylpiperazin-1-yl)pyrimidin-5-ylthio)pyrimidine-4,6-diyl)diacetamide], for which the IC50 – broadly, the midpoint of a concentration-inhibition curve – was 76.7 µM.
`COc1nc(N2CCCCC2)nc(OC)c1Sc1nc(NC(C)=O)cc(NC(C)=O)n1` [YK9, N,N′-(2-(4,6-dimethoxy-2-(piperidin-1-yl)pyrimidin-5-ylthio)pyrimidine-4,6-diyl)diacetamide] registered an IC50 greater than 100 µM.
The compound `C=CC(=O)Nc1cc(N)nc(Sc2c(OC)nc(N)nc2OC)n1` [YK50, N-(6-amino-2-(2-amino-4,6-dimethoxypyrimidin-5-ylthio)pyrimidin-4-yl)acrylamide] returned an IC50 of 1.5 µM.
In turn, `COc1nc(N2CCCCC2)nc(OC)c1Sc1nccc(N)n1` [YK68, 2-(4,6-dimethoxy-2-(piperidin-1-yl)pyrimidin-5-ylthio)pyrimidin-4-amine] gave an IC50 of 14.7 µM.
Take `C=CC(=O)Nc1cc(N)nc(Sc2c(OCC)nc(N3CCOCC3)nc2OCC)n1` [YK44, N-(6-amino-2-(4,6-diethoxy-2-morpholinopyrimidin-5-ylthio)pyrimidin-4-yl)acrylamide]: the IC50 was 1.2 µM.
Regarding `CCC(=O)Nc1cccc(Sc2c(C)nc(N3CCNCC3)nc2C)c1` [YK146, N-(3-(4,6-dimethyl-2-(piperazin-1-yl)pyrimidin-5-ylthio)phenyl)propionamide], the IC50 was found to be 8.8 µM.
The same measure, in the same setting: next, `CCOc1nc(N2CCCCC2)nc(OCC)c1Sc1nc(N)cc(NC(=O)CC)n1` [YK38, N-(6-amino-2-(4,6-diethoxy-2-(piperidin-1-yl)pyrimidin-5-ylthio)pyrimidin-4-yl)propionamide]: 50 µM.
The same measure, in the same setting: next, `COc1nc(N2CCCCC2)nc(OC)c1Sc1nccc(NC(C)=O)n1` [YK64, N-(2-(4,6-dimethoxy-2-(piperidin-1-yl)pyrimidin-5-ylthio)pyrimidin-4-yl)acetamide]: 4 µM; `COc1nc(N)nc(OC)c1Sc1nccc(NC(C)=O)n1` [YK61, N-(2-(2-amino-4,6-dimethoxypyrimidin-5-ylthio)pyrimidin-4-yl)acetamide]: 94.4 µM.
`C=CC(=O)Nc1cc(N)nc(Sc2c(OC)nc(N3CCOCC3)nc2OC)n1` [YK18, N-(6-amino-2-(4,6-dimethoxy-2-morpholinopyrimidin-5-ylthio)pyrimidin-4-yl)acrylamide]: the IC50 was 3 µM.
The compound `COc1nc(N2CCN(C)CC2)nc(OC)c1Sc1nc(NC(C)=O)cc(NC(C)=O)n1` [YK1, N,N′-(2-(4,6-dimethoxy-2-(4-methylpiperazin-1-yl)pyrimidin-5-ylthio)pyrimidine-4,6-diyl)diacetamide] displayed an IC50 of 15 µM.
Same read-out and setting: the figure for `COc1nc(N2CCN(C)CC2)nc(OC)c1Sc1nccc(N)n1` [YK67, 2-(4,6-dimethoxy-2-(4-methylpiperazin-1-yl)pyrimidin-5-ylthio)pyrimidin-4-amine] is 93.5 µM; for `CCOc1nc(N2CCCCC2)nc(OCC)c1Sc1nc(NC(=O)C2CC2)cc(NC(=O)C2CC2)n1` [YK41, N,N′-(2-(4,6-diethoxy-2-(piperidin-1-yl)pyrimidin-5-ylthio)pyrimidine-4,6-diyl)dicyclopropanecarboxamide] it is greater than 100 µM; for `COc1nc(N2CCN(C)CC2)nc(OC)c1Sc1nc(N)cc(NC(=O)CCN(C)C)n1` [YK51, N-(6-amino-2-(4,6-dimethoxy-2-(4-methylpiperazin-1-yl)pyrimidin-5-ylthio)pyrimidin-4-yl)-3-(dimethylamino)propanamide] it is 8 µM.
`COc1nc(N)nc(OC)c1Sc1nc(N)cc(NC(=O)CCN2CCN(C)CC2)n1` [YK6, N-(6-amino-2-(2-amino-4,6-dimethoxypyrimidin-5-ylthio)pyrimidin-4-yl)-3-(4-methylpiperazin-1-yl)propanamide] gave an IC50 of 23 µM. This IC50 lies about 2.9-fold higher than the previous one.
On to `COc1nc(F)nc(OC)c1Sc1nccc(NC(C)=O)n1` [YK62, N-(2-(2-fluoro-4,6-dimethoxypyrimidin-5-ylthio)pyrimidin-4-yl)acetamide], for which the IC50 is greater than 100 µM.
`COc1nc(N2CCOCC2)nc(OC)c1Sc1nc(N)cc(N)n1` [YK11, 2-(4,6-dimethoxy-2-morpholinopyrimidin-5-ylthio)pyrimidine-4,6-diamine] showed an IC50 greater than 100 µM.
The compound `CCCCCCCC(=O)Nc1cc(N)nc(Sc2c(OC)nc(N3CCN(C)CC3)nc2OC)n1` [YK20, N-(6-amino-2-(4,6-dimethoxy-2-(4-methylpiperazin-1-yl)pyrimidin-5-ylthio)pyrimidin-4-yl)octanamide] gave an IC50 of 6.3 µM.
`CCOc1nc(N2CCN(C)CC2)nc(OCC)c1Sc1nc(N)cc(NC(=O)C2CC2)n1` [YK33, N-(6-amino-2-(4,6-diethoxy-2-(4-methylpiperazin-1-yl)pyrimidin-5-ylthio)pyrimidin-4-yl)cyclopropanecarboxamide] showed a concentration for half-maximal inhibition (IC50) of 88.7 µM.
Turning to `COc1nc(N2CCCC2)nc(OC)c1Sc1nccc(N)n1` [YK70, 2-(4,6-dimethoxy-2-(pyrrolidin-1-yl)pyrimidin-5-ylthio)pyrimidin-4-amine], the IC50 stood at 25.2 µM.
Compound `CCOc1nc(N2CCCCC2)nc(OCC)c1Sc1nc(N)cc(NC(=O)C2CC2)n1` [YK40, N-(6-amino-2-(4,6-diethoxy-2-(piperidin-1-yl)pyrimidin-5-ylthio)pyrimidin-4-yl)cyclopropanecarboxamide] returned an IC50 of 38.3 µM.
In turn, `COc1nc(NCCCCCCO)nc(OC)c1Sc1nc(N)cc(N)n1` [YK52, 6-(5-(4,6-diaminopyrimidin-2-ylthio)-4,6-dimethoxypyrimidin-2-ylamino)hexan-1-ol] returned an IC50 of 779 µM.
The compound `COc1nc(N2CCN(C)CC2)nc(OC)c1Sc1nc(N)cc(NC(C)=O)n1` [YK53, N-(6-amino-2-(4,6-dimethoxy-2-(4-methylpiperazin-1-yl)pyrimidin-5-ylthio)pyrimidin-4-yl)acetamide] returned an IC50 of 16 µM.
Same read-out and setting: next, `CCC(=O)Nc1cc(N)nc(Sc2c(OC)nc(N3CCN(C)CC3)nc2OC)n1` [YK13, N-(6-amino-2-(4,6-dimethoxy-2-(4-methylpiperazin-1-yl)pyrimidin-5-ylthio)pyrimidin-4-yl)propionamide]: greater than 100 µM.
In turn, `C=CC(=O)Nc1cc(N)nc(Sc2c(OCC)nc(N3CCCCC3)nc2OCC)n1` [YK37, N-(6-amino-2-(4,6-diethoxy-2-(piperidin-1-yl)pyrimidin-5-ylthio)pyrimidin-4-yl)acrylamide] had an IC50 of 2.5 µM.
For `CCCCCCCC(=O)Nc1cc(N)nc(Sc2c(OC)nc(N3CCN(CCO)CC3)nc2OC)n1` [YK21, N-(6-amino-2-(2-(4-(2-hydroxyethyl)piperazin-1-yl)-4,6-dimethoxypyrimidin-5-ylthio)pyrimidin-4-yl)octanamide], half-maximal inhibition (IC50) required 7.2 µM.
As for `COc1nc(N2CCOCC2)nc(OC)c1Sc1nccc(NC(C)=O)n1` [YK65, N-(2-(4,6-dimethoxy-2-morpholinopyrimidin-5-ylthio)pyrimidin-4-yl)acetamide], the IC50 came out at 15.7 µM.
The same measure, in the same setting: next, `CCC(=O)Nc1cc(N)nc(Sc2c(OC)nc(N3CCCCC3)nc2OC)n1` [YK16, N-(6-amino-2-(4,6-dimethoxy-2-(piperidin-1-yl)pyrimidin-5-ylthio)pyrimidin-4-yl)propionamide]: greater than 100 µM; `COc1nc(N2CCOCC2)nc(OC)c1Sc1nc(NC(C)=O)cc(NC(C)=O)n1` [YK8, N,N′-(2-(4,6-dimethoxy-2-morpholinopyrimidin-5-ylthio)pyrimidine-4,6-diyl)diacetamide]: greater than 100 µM.
In turn, `CCCCCCCC(=O)Nc1cc(N)nc(Sc2c(OC)nc(N3CCCCC3)nc2OC)n1` [YK23, N-(6-amino-2-(4,6-dimethoxy-2-(piperidin-1-yl)pyrimidin-5-ylthio)pyrimidin-4-yl)octanamide] yielded an IC50 of 13.2 µM. That is a double-digit micromolar value.
Consider `CCCCN1CCN(c2nc(OC)c(Sc3nc(NC(C)=O)cc(NC(C)=O)n3)c(OC)n2)CC1` [YK24, N,N′-(2-(2-(4-butylpiperazin-1-yl)-4,6-dimethoxypyrimidin-5-ylthio)pyrimidine-4,6-diyl)diacetamide], for which inhibition was half-maximal at 16.8 µM (IC50). The IC50 values of the last two compounds are within 1.5-fold of each other.
In the case of `C=CC(=O)Nc1cc(N)nc(Sc2c(OC)nc(N3CCN(CCOCCOCCOCCOC(=O)CCCCC4SCC5NC(=O)NC54)CC3)nc2OC)n1` (stereo not drawn) [YK55, 2-(2-(2-(2-(4-(5-(4-acrylamido-6-aminopyrimidin-2-ylthio)-4,6-dimethoxypyrimidin-2-yl)piperazin-1-yl)ethoxy)ethoxy)ethoxy)ethyl 5-(2-oxohexahydro-1H-thieno[3,4-d]imidazol-4-yl)pentanoate], the IC50 came out at 13.1 µM. The IC50 values of the last two compounds are within 1.5-fold of each other.
`C=CC(=O)Nc1ccnc(Sc2c(OC)nc(N3CCCCC3)nc2OC)n1` [YK72, N-(2-(4,6-dimethoxy-2-(piperidin-1-yl)pyrimidin-5-ylthio)pyrimidin-4-yl)acrylamide]: the midpoint of inhibition, the IC50, lay at 2 µM. Compared with the last compound, the IC50 is about 6.5-fold lower.
Regarding `CCC(=O)Nc1cc(N)nc(Sc2c(OC)nc(N3CCN(CCO)CC3)nc2OC)n1` [YK14, N-(6-amino-2-(2-(4-(2-hydroxyethyl)piperazin-1-yl)-4,6-dimethoxypyrimidin-5-ylthio)pyrimidin-4-yl)propionamide], the IC50 is greater than 100 µM.
The same measure, in the same setting: next, `C=CC(=O)Nc1cc(N)nc(Sc2c(OCC)nc(N3CCN(C)CC3)nc2OCC)n1` [YK30, N-(6-amino-2-(4,6-diethoxy-2-(4-methylpiperazin-1-yl)pyrimidin-5-ylthio)pyrimidin-4-yl)acrylamide]: 0.48 µM.

Still in this assay, the particulars now being: Kasumi-1 cells, 72 h.
`CCC(=O)Nc1cccc(Sc2c(C)nc(N3CCNCC3)nc2C)c1` [YK146, N-(3-(4,6-dimethyl-2-(piperazin-1-yl)pyrimidin-5-ylthio)phenyl)propionamide] displayed an IC50 of 9 µM. In other words, the single-digit micromolar range.
